For assay [1], the target named is T1, boron transporter (BOR1) BOR1-GFP fusion protein (Arabidopsis thaliana, UniProt Q8VYR7).
T1 construct: made in house; host or cells: Saccharomyces cerevisiae FGY217
Kind of assay: solubilization (extraction) of BOR1-GFP fusion protein from membranes. Particulars: amphipathic compound at 1.0 wt %. How it is done:
The ability of PSAs and PSEs to solubilize membrane proteins and to stabilize the structures of membrane proteins was evaluated using boron transporter (BOR1), a membrane protein. BOR1 was isolated from Arabidopsis thaliana, and was expressed in the form of a fusion protein having a GFP tag at the C-terminus in Saccharomyces cerevisiae FGY217 cells. This fusion protein has been proven to have boron transporting activity and is therefore involved in both structural and functional analysis of membrane proteins.
The ability of amphipathic compound PSAs and PSEs to solubilize the boron transporter (BOR1) membrane protein was evaluated.
Specifically, membranes containing BOR1-GFP fusion proteins were treated with an existing amphipathic compound (DDM), PSAs (PSA-C9, PSA-C10 and PSA-C11), or PSEs (PSE-C9, PSE-C11 and PSE-C13) at a concentration of 1.0 wt %. The solubilization efficiencies of PSA-C9, PSA-C10 and PSE-C9 were about 80% similar to the solubilization efficiency of DDM. In particular, the BOR1-GFP protein was quantitatively extracted (˜100%) using PSE-C11 having medium length chains, thus confirming that PSE-C11 is particularly useful for solubilization of BOR1-GFP.
Specifically, Arabidopsis thaliana-derived BOR1 was expressed in the form of a fusion protein having a GFP tag at the C-terminus in Saccharomyces cerevisiae FGY217 cells. The cells were grown in an URA-medium supplemented with 0.1% glucose. 2% galactose was added to the cell culture to induce protein expression and the cells were cultured at 20° C. for 18 hours (see Drew, D. et al., Nat. Protoc. 2008, 3, 784-798.). After culture, the cells were harvested and used to obtain the cell membranes (see Leung, J. et al., Protein Expr. Purif. 2010, 72, 139-146.). Membranes containing BOR1-GFP fusion proteins were diluted to a final total protein concentration of 2.8 mg/mL in PBS (pH7.4) supplemented with 1 wt % DDM, 1 wt % PSAs (PSA-C9, PSA-C10 or PSA-C11) or 1 wt % PSEs (PSE-C9, PSE-C11 or PSE-C13). The diluted samples were incubated at 4° C. for 1 hour with gentle shaking, and insoluble substances were removed by centrifugation at 14,000 g for 1 hour at 4° C. Supernatants containing the dissolved protein samples were incubated for 10 minutes at the specified temperature (35, 40, 45 or 50° C.), and strongly agglutinated proteins were removed by centrifugation at 14,000 g for 10 minutes at 4° C. 200 μL aliquots were taken from the supernatant and injected into a Superose 6 10/300 column equilibrated with 20 mM Tris-HCl (pH 7.5), 150 mM NaCl and 0.03% DDM. Each elution fraction was collected from a retention volume of 6.4 mL (i.e., after 6.4 mL of solution had passed), and added to a well of a clear bottom 96-well plate at a volume of 200 μL. GFP fluorescence generated in each fraction was measured using an excitation wavelength of 470 nm and an emission wavelength of 512 nm.

The target in assay [2] is T2, human β2 adrenergic receptor (β2AR) (Homo sapiens, UniProt P07550).
T2 construct: Flag; made in house
Briefly: extraction and solubilization of β2AR directly from cell membranes ([3H]-DHA activity, SEC). The following applies: for SEC peak of extracted β2AR: buffer not containing amphipathic compounds. As to the method:
The best, PSE-C11, among tested PSAs/PSEs was used to extract β2ARs directly from the cell membranes. Receptors were treated with 1.0 wt % PSE-C11 or DDM, and the activity of the receptors solubilized in PSE-C11 or DDM was measured using a radiolabeled ligand, [^3H]-DHA.
Specifically, experiments to extract and solubilize receptors from the cell membranes were performed as follows. 10 mL of a PSE-C11 amphipathic compound buffer (20 mM HEPES (pH 7.5), 100 mM NaCl, 1.0 wt % PSE-C11) was added to 1 g of an insect cell (Sf9) pellet expressing β2ARs. The mixture was stirred for solubilization for 1 hour. After performing centrifugation at 12,000 g for 20 minutes, a supernatant was collected and loaded onto a M1 Flag column in the presence of 2 mM CaCl2. The column was washed with a PSE-C11 buffer (20 mM HEPES (pH 7.5), 100 mM NaCl, 0.2 wt % amphipathic compound). Receptors were eluted with 20×CMC PSE-C11, 5 mM EDTA and 0.2 mg/mL free Flag peptides. To measure the activity of the receptors solubilized and purified by DDM or PSE-C11, 0.2 pmol of β2ARs was incubated with […] [^3H]-DHA and each amphipathic compound at room temperature for 30 minutes, and the activity of β2ARs was measured. The following procedure was performed in the same manner as described in Example 9-3. Each measurement was performed three times. The receptors solubilized in 20×CMC PSE-C11 or 20×CMC DDM were also applied to SEC under a buffer (20 mM HEPES (pH 7.5), 100 mM NaCl) not containing an amphipathic compound (PSE-C11 or DDM).

Here are results for two compounds from patent US20190169218A1, “AMPHIPATHIC COMPOUND HAVING NOVEL PENTA-SACCHARIDE HYDROPHILIC GROUP AND USE THEREOF” (Industry-University Cooperation Foundation Hanyang …, priority 2016, published 2019).

T2 sequence (P07550 whole entry): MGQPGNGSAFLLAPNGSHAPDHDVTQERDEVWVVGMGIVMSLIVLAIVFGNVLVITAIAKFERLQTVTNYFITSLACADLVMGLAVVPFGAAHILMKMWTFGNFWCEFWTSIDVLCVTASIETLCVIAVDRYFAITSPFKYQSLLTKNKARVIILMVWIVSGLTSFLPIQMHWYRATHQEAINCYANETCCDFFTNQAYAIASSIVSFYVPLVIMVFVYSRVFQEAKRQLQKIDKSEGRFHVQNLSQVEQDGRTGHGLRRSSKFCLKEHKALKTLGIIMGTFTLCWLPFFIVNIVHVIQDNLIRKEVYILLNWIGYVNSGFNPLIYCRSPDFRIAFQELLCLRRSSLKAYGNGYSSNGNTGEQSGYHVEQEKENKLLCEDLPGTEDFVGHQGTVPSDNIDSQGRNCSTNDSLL

Regarding `CCCCCCCCCCCCO[C@@H]1O[C@H](CO)[C@@H](O[C@H]2O[C@H](CO)[C@@H](O)[C@H](O)[C@H]2O)[C@H](O)[C@H]1O` [DDM, n-dodecyl-β-D-maltopyranoside, reference compound], the “solubilization efficiency of BOR1-GFP” value in assay [1] is listed as “about 80%”. Moreover, the “SEC peak of extracted β2AR” value in assay [2] is listed as “no peak corresponding to the proteins was observed”.

As to `CCCCCCCCCCCOCC(COCCCCCCCCCCC)O[C@@H]1OC(CO[C@@H]2OC(CO)[C@@H](O)C(O)C2O)[C@@H](O[C@@H]2OC(CO)[C@@H](O)C(O)C2O)C(O[C@@H]2OC(CO)[C@@H](O)C(O)C2O)C1O[C@@H]1OC(CO)[C@@H](O)C(O)C1O` (some centres unmarked) [PSE-C11], in assay [1], the “solubilization efficiency of BOR1-GFP” value is listed as about 100%. In addition, the “activity of β2AR extracted from cell membranes ([3H]-DHA)” value in assay [2] (1.0 wt % PSE-C11 or DDM) is listed as “higher activity than proteins extracted by DDM”. In assay [2], the “SEC peak of extracted β2AR” value is recorded as “a distinct monodisperse peak”.
